26 molecules from patent publication US8378098B2, “Imidazol[1,2-α]quinoxalines and derivatives for the treatment of cancers” (Universite de Montpellier I, priority 2007, dated 2013) can be followed below.

By IC50 is commonly meant the midpoint of a concentration-inhibition curve. The term Vd denotes the apparent volume that relates the amount in the body to the concentration in plasma or blood. A higher Vd goes with extensive tissue distribution. What is called clearance is a measure of how efficiently the substance is removed, as volume per time. Broadly, the half-life is how long it takes for the measured level to halve. Low readings indicate fast loss, high ones slow loss.

Read-outs that look alike come from different tables or passages of the source.

For one data set, the system named is A375 melanoma. In words: in vitro cytotoxicity (antiproliferative activity) on A375 melanoma line. Format: cell-based, human. The note with it: for activity compared with EAPB0203: A375, comparing IC50 values of Table 3. From the text: Antiproliferative activity was first measured on a cancer cell line of human origin, A375 melanoma.
Imiquimod and fotemustine (Muphoran®) are used as controls in this study.
(§1) Several human carcinoma cell lines were used: • Lines A375, M4Be, RPMI7591 from human melanoma. • Line LS174T from colon carcinoma. • Line A 2780 from ovarian carcinoma. • The Raji line from B lymphoma. • Line MCF7 from breast carcinoma.
IC50 (concentration of the product tested which inhibits 50% of the maximum cell proliferation observed in the control wells) is determined graphically from the curve of the percentage of cell proliferation as a function of concentration of the product tested.

The subject of another data set is MCF7 (breast cancer). In words: in vitro cytotoxicity on MCF7 breast cancer line. The class given is cell-based. To be noted: Homo sapiens, Table 2, unit inferred.
Description: as §1

A short description of data set [1]: lethal doses 50% reported in the pharmacokinetic study. The class given is in vivo. The note with it: species and route not stated in the sentence (rat study). The procedure:
(§2) Methods of assaying compounds EAPB0203, EAPB0503 and EAPB0603 by high performance liquid chromatography and detection by mass spectrometry (LC/ESI-MS) were developed and validated in human and rat plasmas. Pre-treatment of the samples consists of a liquid solid extraction preceded by precipitation of plasma proteins in acid medium. The chromatographic column used is C8 Zorbax eclipse XDB and the mobile phase (gradient) a mixture of acetonitrile and formate buffer (pH 3) (flow rate, 0.8 ml/min). The […] from 92 to 113%. The extraction coefficients are higher than 72%. The quantification limit is 5 μg/l for all analytes. Stability tests of the compounds in the matrices were also carried out. These methods were used to determine the pharmacokinetic parameters of compounds EAPB0203, EAPB0503 and EAPB0603 in the rat. The lethal doses 50% of compounds EAPB0203 and EAPB0503 are respectively 14.8 and 7.6 mg/kg.

The nature of a further data set: in vivo. The note with it: rat. The procedure: as §2
In another data set the test system is M4Be human melanoma. In words: anti-proliferative activity in vivo, M4Be human melanoma xenografted in athymic mice. The note with it: 20 mg/kg once per week i.p.; sacrifice at tumour volume 2 cm^3. The procedure:
FIG. 1: Effects of fotemustine (20 mg/kg once per week for 3 weeks) and EAPB0203 (20 mg/kg twice per week for 3 weeks) on tumour growth in athymic Swiss mice xenografted with M4Be human melanoma cell line.
Δ, control; ▪, EAPB0203; ●, fotemustine. The data are the results of only one experiment carried out on six mice per group. The results are represented as mean±SEM.
In this study, data are presented relating to the activity of EAPB0203 on the volume of a type of human melanoma tumour model (M4Be lines), xenografted in athymic mice. This study required as a preliminary step several tests of grafts of human melanoma cell lines in athymic mice before establishing the adequate animal model. The in vivo study was performed following the in vitro experiments described previously.
The activity and specificity of EAPB0203 in vivo on tumour growth of human melanoma are evaluated by monitoring tumour development in mice carrying M4Be melanoma treated by administration of fotemustine and EAPB0203 at various doses.
For this study, 18 Swiss nude mice (3 groups of 6 mice) were used. M4Be cancer cells in suspension were injected subcutaneously into the right flank of each athymic Swiss nude female 7-week-old mouse weighing 20-22 g at the beginning of the protocol. The mice were then maintained in a sterile atmosphere and received aseptic food and water. The weight of the mouse and the growth of the tumour in three dimensions were recorded twice a week.
A first group of 6 mice (reference) will receive fotemustine by intra-peritoneal route at a dose of 20 mg/kg once per week for 3 weeks, beginning 7 days after inoculation at the time when the tumour will be visible and palpable. A second group of 6 mice will receive EAPB0203 at the same dose of 20 mg/kg via intra-peritoneal route but twice per week (40 mg/kg per week). The third group (control) of 6 mice will receive only the administration carrier. Tumour volume is calculated by the following formula: length X width X height X 0.52, and is expressed as mean±SEM mm^3.
For fotemustine and EAPB0203, the sequence of administrations is a treatment of three weeks, then two weeks without treatment, and then a second treatment of three weeks.
In general terms: In xenograft studies the graft and the host belong to different species.

Another data set concerns RPMI7591 (melanoma). In words: in vitro cytotoxicity on RPMI7591 melanoma line. The class given is cell-based. To be noted: Homo sapiens, read-out: IC50 RPMI7591.
Description: as §1

Another data set has as its system M4Be (melanoma). In words: in vitro cytotoxicity on M4Be melanoma line. The class given is cell-based. The note with it: Homo sapiens, read-out: IC50 M4Be.
Description: as §1

In another data set the test system is Raji (B lymphoma). In words: in vitro cytotoxicity on Raji B lymphoma line. Format: cell-based, human. The note with it: Table 2, unit inferred.
Description: as §1

The next data set deals with LS174T (colon cancer). Description: in vitro cytotoxicity on LS174T colon cancer line. Format: cell-based. To be noted: Homo sapiens, Table 2, unit inferred.
Description: as §1

[2] abbreviates: Homo sapiens, A-375, A375 melanoma line, Table 1, IC50 and standard deviation, read-out: IC50.
Setting [3] is: A375, comparison of IC50 values.
[4] abbreviates: Homo sapiens, A-375, A375, Table 3, read-out: IC50.

As to “1-furan-N-methylimidazo[1,2-a]quinoxalin-4-amine [EAPB01703]”, the IC50 in the data set with A375 melanoma (A375, Table 3, read-out: IC50) came to 74.1 ± 3.1 µM.

With `COc1cccc2c1C(=O)c1c(O)c3c(c(O)c1C2=O)C[C@@](O)(C(=O)CO)C[C@@H]3O[C@H]1C[C@H](N)[C@H](O)[C@H](C)O1` [Doxorubicine, doxorubicin], the IC50 in the data set with MCF7 (breast cancer) is 0.13 ± 0.01 µM.

As to `CNc1nc2ccccc2n2c(CC(C)C)cnc12` [EAPB0103, 1-Isobutyl-N-methylimidazo[1,2-a]quinoxalin-4-amine], the IC50 in the data set on A375 melanoma (setting [2]) is 31.6 ± 2 µM.

With `CC(C)Cc1cnc2c(N(C)C)nc3ccccc3n12` [EAPB0104, 1-Isobutyl-N,N-dimethylimidazo[1,2-a]quinoxalin-4-amine], the IC50 in the data set on A375 melanoma (setting [2]) stood at 66.3 ± 7.5 µM.

As to `Clc1nc2ccccc2n2c(CCc3ccccc3)cnc12` [EAPB0201, 4-Chloro-1-(2-phenylethyl)imidazo[1,2-a]quinoxaline], in the data set on A375 melanoma (setting [2]), the concentration for half-maximal inhibition (IC50) is 24 ± 0.5 µM.

As for `Nc1nc2ccccc2n2c(CCc3ccccc3)cnc12` [EAPB0202, 1-(2-phenylethyl)imidazo[1,2-a]quinoxalin-4-amine], in the data set on A375 melanoma (setting [3]), the “activity times higher than that of fotemustine” value was 70 times, the “activity times higher than that of imiquimod” value is 30 times and the “times more active than EAPB0204” value is reported as ~2 times. For the same molecule, in the data set with A375 melanoma (setting [2]), the IC50 was 2.35 µM.

On to `CN(C)c1nc2ccccc2n2c(CCc3ccccc3)cnc12` [EAPB0204, N,N-Dimethyl-1-(2-phenylethyl)imidazo[1,2-a]quinoxalin-4-amine], for which the IC50 in the data set on A375 melanoma (setting [2]) turned out to be 80.1 ± 7 µM.

As for `COc1nc2ccccc2n2c(CCc3ccccc3)cnc12` [EAPB0206, 4-Methoxy-1-(2-phenylethyl)imidazo[1,2-a]quinoxaline], in the data set with A375 melanoma (setting [2]), the IC50 amounted to 47.8 ± 5 µM.

For the molecule `CNc1nc2ccccc2n2c(-c3ccccc3)cnc12` [EAPB0403, N-methyl-1-phenylimidazo[1,2-a]quinoxalin-4-amine], in the data set with A375 melanoma (setting [4]), the IC50 was 2.19 ± 0.08 µM.

Consider `CNc1nc2ccccc2n2c(-c3cccc(OC)c3)cnc12` [EAPB0503, 1-(3-methoxyphenyl)-N-methylimidazo[1,2-a]quinoxalin-4-amine], for which the “activity compared with EAPB0203” value in the data set on A375 melanoma was “higher than that of EAPB0203”. In addition, the IC50 in the data set with A375 melanoma (setting [4]) was found to be 0.18 ± 0.09 µM. Further, the “lethal doses 50%” value in [1] is listed as 7.6 mg/kg. Further, in the data set “in vivo” (iv, 5 mg/kg), the volume of distribution (Vd) came out at 5.6 L/kg, the “area under the curve of plasma concentrations” value was 2.31 µg·h/mL, the clearance is 2.2 L/h/kg and the half-life is 1.76 h.

In the case of `CNc1nc2ccccc2n2c(-c3cccc(O)c3)cnc12` [EAPB0603, 1-(3-hydroxyphenyl)-N-methylimidazo[1,2-a]quinoxalin-4-amine], the “activity compared with EAPB0203” value in the data set with A375 melanoma is reported as “higher than that of EAPB0203”. The IC50 in the data set with A375 melanoma (setting [4]) turned out to be 0.56 ± 0.12 µM. Besides, the metabolic relation result in “in vivo” is “active metabolite of EAPB0503”. Moreover, the “elimination half-life (metabolite)” value in “in vivo” (iv, 5 mg/kg) came to 4.7 h.

Regarding `CNc1nc2ccccc2n2c(-c3ccc(OC)cc3)cnc12` [EAPB0703, 1-(4-methoxyphenyl)-N-methylimidazo[1,2-a]quinoxalin-4-amine], in the data set on A375 melanoma, the “activity compared with EAPB0203” value was “higher than that of EAPB0203”. For the same molecule, the IC50 with A375 melanoma (setting [4]) worked out at 0.37 ± 0.4 µM.

For `CNc1nc2ccccc2n2c(-c3ccccc3OC)cnc12` [EAPB0803, 1-(2-methoxyphenyl)-N-methylimidazo[1,2-a]quinoxalin-4-amine], the IC50 with A375 melanoma (setting [4]) is 122 ± 25 µM.

On to `CCOc1cccc(-c2cnc3c(NC)nc4ccccc4n23)c1` [EAPB0903, 1-(3-ethoxyphenyl)-N-methylimidazo[1,2-a]quinoxalin-4-amine], for which the “activity compared with EAPB0203” value in the data set with A375 melanoma is recorded as “higher than that of EAPB0203”. For the same molecule, in the data set with A375 melanoma (setting [4]), the IC50 came out at 0.3 ± 0.01 µM.

With `CNc1nc2ccccc2n2c(-c3cccc(Br)c3)cnc12` [EAPB01003, 1-(3-bromophenyl)-N-methylimidazo[1,2-a]quinoxalin-4-amine], in the data set on A375 melanoma, the “activity compared with EAPB0203” value is recorded as “higher than that of EAPB0203”. In the data set on A375 melanoma (setting [4]), the half-inhibitory concentration (IC50) turned out to be 0.65 ± 0.02 µM.

In the case of `CNc1nc2ccccc2n2c(-c3cccc(C(F)(F)F)c3)cnc12` [EAPB01103], the 50% inhibitory concentration (IC50) in the data set on A375 melanoma (A375, Table 3, read-out: IC50) came out at 1.28 ± 0.18 µM.

`CNc1nc2ccccc2n2c(-c3cccc(Cl)c3)cnc12` [EAPB01203, 1-(3-chlorophenyl)-N-methylimidazo[1,2-a]quinoxalin-4-amine]: the half-maximal inhibitory concentration (IC50) in the data set with A375 melanoma (setting [4]) was 1.78 ± 0.35 µM.

`CNc1nc2ccccc2n2c(-c3cccc(C(=O)O)c3)cnc12` [EAPB01303, 1-(3-carboxyphenyl)-N-methylimidazo[1,2-a]quinoxalin-4-amine]: in the data set on A375 melanoma (setting [4]), the IC50 came out at 3.47 ± 0.55 µM.

Take `CNc1nc2ccccc2n2c(-c3cccc(F)c3)cnc12` [EAPB01403, 1-(3-fluorophenyl)-N-methylimidazo[1,2-a]quinoxalin-4-amine]: the IC50 in the data set with A375 melanoma (setting [4]) is 24.9 ± 0.27 µM.

On to `CNc1nc2ccccc2n2c(-c3cccc(C#N)c3)cnc12` [EAPB01503, 1-(3-cyanophenyl)-N-methylimidazo[1,2-a]quinoxalin-4-amine], for which the half-inhibitory concentration (IC50) in the data set with A375 melanoma (setting [4]) came out at 27 ± 2.2 µM.

In the case of `CNc1nc2ccccc2n2c(-c3cccc([N+](=O)[O-])c3)cnc12` [EAPB01603, 1-(3-nitrophenyl)-N-methylimidazo[1,2-a]quinoxalin-4-amine], the half-maximal inhibitory concentration (IC50) with A375 melanoma (setting [4]) came to 40 ± 3.9 µM.

As for `CCOP(=O)(OCC)C(C)NC(=O)N(CCCl)N=O` (stereo not drawn) [Fotemustine, fotemustine, reference compound], the IC50 was 173 ± 24 µM in the data set with A375 melanoma (Homo sapiens, A-375, read-out: IC50 A375); 125 ± 49 µM in the data set on RPMI7591 (melanoma); 326 ± 34 µM with M4Be (melanoma). In addition, the “day on which the last mice were euthanatized” value in the data set with M4Be human melanoma was 76 days.

For `CC(C)Cn1cnc2c(N)nc3ccccc3c21` [Imiquimod, imiquimod], the IC50 in the data set on A375 melanoma (Homo sapiens, A-375, Table 2, unit inferred, read-out: IC50 A375) came to 70.3 ± 4.3 µM; in the data set with RPMI7591 (melanoma) (Table 2, unit inferred), 53.7 ± 9.8 µM; with MCF7 (breast cancer), 145 ± 7 µM; in the data set on Raji (B lymphoma) (Homo sapiens, Raji) it was 139 ± 12 µM; with M4Be (melanoma) (Table 2, unit inferred), 33.5 ± 7.7 µM; in the data set with LS174T (colon cancer) it was 34.4 ± 9.7 µM.

Consider `CCc1c2c(nc3ccc(OC(=O)N4CCC(N5CCCCC5)CC4)cc13)-c1cc3c(c(=O)n1C2)COC(=O)[C@]3(O)CC` [Irinotecan, irinotecan], for which the 50% inhibitory concentration (IC50) with LS174T (colon cancer) was 1.16 ± 0.07 µM.

In turn, `CN(Cc1cnc2nc(N)nc(N)c2n1)c1ccc(C(=O)N[C@@H](CCC(=O)O)C(=O)O)cc1` [Methothrexate, methothrexate] yielded a half-inhibitory concentration (IC50) in the data set on Raji (B lymphoma) of 0.04 ± 0.005 µM.

As to `CNc1nc2ccccc2n2cc(-c3cccc(OC)c3)nc12` [N-methyl-2-(3-methoxyphenyl)imidazo[1,2-a]quinoxalin-4-amine], in the data set with A375 melanoma (A375), the “activity times higher than EAPB0203” value was 100 times and the “activity times higher than that of EAPB0503” value amounted to 10 times. In the data set on A375 melanoma (Homo sapiens, A-375, melanoma (A375), text b219, read-out: IC50), the half-inhibitory concentration (IC50) was 0.018 µM.
